The target of assay [1] is T1, α1B receptor (Rattus norvegicus, UniProt P15823).
T1 construct: membranes from rat brain cortex; from tissue; host or cells: rat brain cortex membranes
T1 sequence (P15823 1-515): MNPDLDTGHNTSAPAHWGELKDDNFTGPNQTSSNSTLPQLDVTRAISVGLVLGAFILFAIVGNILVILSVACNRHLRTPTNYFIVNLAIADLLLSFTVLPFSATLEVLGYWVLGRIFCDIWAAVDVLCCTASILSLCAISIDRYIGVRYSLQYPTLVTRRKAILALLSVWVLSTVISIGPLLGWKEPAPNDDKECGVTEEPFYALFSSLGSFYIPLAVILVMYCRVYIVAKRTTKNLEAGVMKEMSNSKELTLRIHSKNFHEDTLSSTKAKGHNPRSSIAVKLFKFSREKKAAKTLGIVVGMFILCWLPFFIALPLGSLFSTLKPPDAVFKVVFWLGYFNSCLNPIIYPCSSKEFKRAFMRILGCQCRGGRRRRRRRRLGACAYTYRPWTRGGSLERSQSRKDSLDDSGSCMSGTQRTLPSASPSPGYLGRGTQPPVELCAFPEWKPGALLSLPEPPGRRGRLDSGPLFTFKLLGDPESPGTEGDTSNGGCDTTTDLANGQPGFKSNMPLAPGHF
The assay can be described thus: Radioligand binding with [3H]prazosine (in the presence of WB 4101), affinity for α1B receptor subtype. As to conditions: membranes from rat brain cortex, subtype-selective substances tested again in the presence of 3 nmol/l WB 4101, Cheng and Prusoff; for Ki: read-out: Receptor affinity α1B, expressed in pKI values (converted). Here is the method: (§1) The affinity of substances for α1 receptor subtypes was determined in radioligand binding studies using [^3 H]prazosine as a radioligand. 50-200 μg of membranes from rat brain cortex were incubated in a total volume of 0.5-1 ml with [^3 H]prazosine (0.2 to 0.5 nmol/l) in the presence of rising concentrations of substances. The incubation buffer used was 50 mmol/l tris/HCl pH 7.5, 1 mmol/l EDTA, 0.1 mmol/l PMSF. The nonspecific binding was determined in separate batches in the presence of 10 μmol/l of phentolamine or 1 μmol/l of prazosine. After 1 h at 37° C., the bound radioactivity was separated from the free radioactivity by rapid filtration of the incubation batch at 0° C. through glass fiber filters. The filters were washed twice with 3.5 ml each of cold filtration buffer (50 mmol/l tris/HCl pH 7.4, 10 mmol/l MgCl2, 10% polyethylene glycol 6000). The filter-bound radioactivity was determined by liquid scintillation counting. Substances with subtype selectivity for the α1 receptor subtypes were tested again in the presence of 3 nmol/l of WB 4101. WB4101 blocks the binding of [^3 H]prazosine to the α1A receptor subtype and the remaining binding corresponds to that to the α1B receptor.
(§2) For each substance, dose-response curves were plotted by means of nonlinear regression using the Inplot program (GraphPad, Sorento, Calif., USA). IC50 values were corrected by the concentration of the radioligand employed according to the formula of Cheng and Prusoff. The resulting KI values (see following table) represent the affinity of the respective substance for the tested receptor. The compounds according to the invention investigated according to the model illustrated in greater detail above have been provided in the following table with numbers which correspond to the numbers of these compounds in the examples.

In assay [2] the target is T2, 5-HT1A receptor (Sus scrofa, UniProt A0A4X1UTF5).
T2 construct: membranes from pig brain cortex; from tissue; host or cells: pig brain cortex membranes
T2 sequence (A0A4X1UTF5 1-422): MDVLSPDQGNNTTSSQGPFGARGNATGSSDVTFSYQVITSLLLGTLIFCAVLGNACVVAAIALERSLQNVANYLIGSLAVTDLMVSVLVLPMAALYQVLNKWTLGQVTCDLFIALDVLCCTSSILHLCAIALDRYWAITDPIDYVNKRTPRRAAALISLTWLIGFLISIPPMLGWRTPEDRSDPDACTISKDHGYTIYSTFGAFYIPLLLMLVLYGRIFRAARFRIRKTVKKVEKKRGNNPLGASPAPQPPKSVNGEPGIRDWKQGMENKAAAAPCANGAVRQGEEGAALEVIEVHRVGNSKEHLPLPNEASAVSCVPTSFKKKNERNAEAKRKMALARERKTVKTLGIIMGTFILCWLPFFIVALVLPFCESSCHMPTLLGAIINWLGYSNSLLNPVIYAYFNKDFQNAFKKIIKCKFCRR
The assay can be described thus: Radioligand binding with [3H]8-OH-DPAT, affinity for 5-HT1A receptor. As to conditions: membranes from pig brain cortex, IC50 corrected according to Cheng and Prusoff; for Ki: read-out: Receptor affinity 5-HT1A, expressed in pKI values (converted). Here is the method:
The affinity of substances for the 5-HT1A receptor was determined in radioligand binding studies using [^3 H]8-OH-DPAT as a radioligand. 50-150 μg of membranes from pig brain cortex were incubated in a total volume of 0.25-0.5 ml with [^3 H]8-OH-DPAT (0.2 to 0.4 nmol/l) in the presence of rising concentrations of substances. The incubation buffer used was 50 mmol/l tris/HCl pH 8.2, 1 mmol/l MnCl2. The nonspecific binding was determined in separate batches in the presence of 10 μmol/l of 5-HT. After 30 min at 23° C., the bound radioactivity was separated from the free radioactivity by rapid filtration of the incubation batch at 0° C. through glass fiber filters. The filters were washed twice with 3.5 ml each of cold filtration buffer (50 mmol/l tris/HCl pH 7.4, 10 mmol/l MgCl2, 10% polyethylene glycol 6000). The filter-bound radioactivity was determined by liquid scintillation counting.
as §2

Assay [3] has as its target T3, α1A receptor (Rattus norvegicus, UniProt P43140).
T3 construct: membranes from rat brain cortex; from tissue; host or cells: rat brain cortex membranes
T3 sequence (P43140 1-466): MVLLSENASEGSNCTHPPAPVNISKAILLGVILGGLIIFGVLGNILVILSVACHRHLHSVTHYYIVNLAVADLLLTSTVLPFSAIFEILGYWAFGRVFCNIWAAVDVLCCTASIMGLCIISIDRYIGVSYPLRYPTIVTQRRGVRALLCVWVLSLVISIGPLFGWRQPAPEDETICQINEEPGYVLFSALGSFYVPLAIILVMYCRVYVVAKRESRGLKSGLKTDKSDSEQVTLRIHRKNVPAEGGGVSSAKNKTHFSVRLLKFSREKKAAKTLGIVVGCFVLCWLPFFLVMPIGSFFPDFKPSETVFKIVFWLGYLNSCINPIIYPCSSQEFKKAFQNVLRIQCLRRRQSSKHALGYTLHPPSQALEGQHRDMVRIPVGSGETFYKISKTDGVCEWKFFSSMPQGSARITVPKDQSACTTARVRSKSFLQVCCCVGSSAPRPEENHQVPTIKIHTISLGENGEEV
Nature of the assay: Radioligand binding with [3H]prazosine, affinity for α1A receptor subtype. The note with it: membranes from rat brain cortex, IC50 corrected according to Cheng and Prusoff; for Ki: read-out: Receptor affinity α1A, expressed in pKI values (converted). On the procedure: as §1, §2

In the case of `Cc1c(NCCCN2CCN(c3ccccc3OC(F)(F)C(F)F)CC2)n(C)c(=O)n(C)c1=O` [Compound 6, 1,3,5-Trimethyl-6-[[3-[4-(2-tetrafluoro-ethoxyphenyl)-1-piperazinyl]-propyl]amino]-2,4(1H,3H)-pyrimidinedione], in assay [1], the “Receptor affinity α1B, expressed in pKI values” (“Receptor affinity α1B, expressed” below) is 7.5. Moreover, in assay [2], the “Receptor affinity 5-HT1A, expressed in pKI values” (“Receptor affinity 5-HT1A” below) is 9.7. Also, the “Receptor affinity α1A, expressed in pKI values” (from here on “Receptor affinity α1A, expressed”) in assay [3] is recorded as 9.4.

For `COc1ccccc1N1CCN(CCCNc2c(Cc3c(NCCCN4CCN(c5ccccc5OC)CC4)n(C)c(=O)n(C)c3=O)c(=O)n(C)c(=O)n2C)CC1` [Compound 2], the Ki in assay [1] is 0.398 nM; in assay [2] it was 12.6 nM; in assay [3], 0.398 nM.

Regarding `COc1ccccc1N1CCN(CCCNc2c(C=NO)c(=O)n(C)c(=O)n2C)CC1` [Compound 16, 1,3-Dimethyl-5-hydroxyiminomethyl-6-[[3-[4-(2-methoxphenyl)-1-piperazinyl]propyl]amino]-2,4(1H,3H)-pyrimidinedione], the values for the Ki in assay [1], in assay [2] and in assay [3] were 50.1 nM, 1 nM and 2 nM, respectively.

As to `C=CCc1c(NCCCN2CCN(c3ccccc3OC(F)(F)C(F)F)CC2)n(C)c(=O)n(C)c1=O` [Compound 11, 5-Allyl-1,3-dimethyl-6-[[3-[4-(2-tetrafluoro-ethoxyphenyl)-1-piperazinyl]propyl]amino]-2,4(1H,3H)-pyrimidinedione], the “Receptor affinity α1B, expressed” value in assay [1] amounted to 7.9. Further, the “Receptor affinity 5-HT1A” value in assay [2] worked out at 9.3. In assay [3], the “Receptor affinity α1A, expressed” value was 9.6.

With `COc1ccccc1N1CCN(CCCNc2c(OC)c(=O)n(C)c(=O)n2C)CC1` [Compound 17], the Ki is 50.1 nM in assay [1], 2.51 nM in assay [2] and 50.1 nM in assay [3].

Take `CON=Cc1c(NCCCN2CCN(c3ccccc3OC)CC2)n(C)c(=O)n(C)c1=O` [Compound 15, 1,3-Dimethyl-5-methoxyiminomethyl-6-[[3-[4-(2-methoxyohenyl)-1-piperazinyl]propyl]amino]-2,4(1H,3H)-pyrimidinedione]: the Ki in assay [1] is 126 nM; in assay [2], 1.58 nM; in assay [3], 5.01 nM.

On to `COc1ccccc1N1CCN(CCCNC(=O)c2cc(=O)n(C)c(=O)n2C)CC1` [Compound 5, 1,3-Dimethyl-2,4(1H,3H)-pyrimidinedione-6-carboxylic acid [[3-[4-(2-methoxyphenyl)-1-piperazinyl]propyl]amide]], for which the Ki in assay [1] is 251 nM; in assay [2], 2.51 nM; in assay [3], 5.01 nM.

`Cn1c(NCCCN2CCN(c3ccccc3OC(F)(F)C(F)F)CC2)c(CCC#N)c(=O)n(C)c1=O` [Compound 8]: the “Receptor affinity α1B, expressed” value in assay [1] came out at 7.5. The “Receptor affinity 5-HT1A” value in assay [2] is 10.0. Also, the “Receptor affinity α1A, expressed” value in assay [3] was 9.2.

Consider `COc1cc(Br)c(Br)cc1N1CCN(CCCNc2c(C)c(=O)n(C)c(=O)n2C)CC1` [Compound 1, 1,3,5-Trimethyl-6-[[3-[4-(3,4-dibromo-6-methoxy-phenyl)-1-piperazinyl]propyl]amino]-2,4(1H,3H)-pyrimidinedione], for which the Ki in assay [1] is 5.01 nM; in assay [2], 1.26 nM; in assay [3], 5.01 nM.

As for `COc1cc([N+](=O)[O-])ccc1N1CCN(CCCNc2c(C)c(=O)n(C)c(=O)n2C)CC1` [Compound 14, 1,3,5-Trimethyl-6-[[3-[4-(2-methoxy-4-nitrophenyl)-1-piperazinyl]propyl]amino]-2,4(1H,3H)-pyrimidinedione], the Ki in assay [1] was 251 nM; in assay [2] it was 200 nM; in assay [3], 251 nM.

`C=CCc1c(NCCCN2CCN(c3ccc(F)cc3OCC)CC2)n(C)c(=O)n(C)c1=O` [Compound 7, 5-Allyl-1,3-dimethyl-6-[[3-[4-(2-ethoxy-4-fluorophenyl)-1-piperazinyl]propyl]amino]-2,4(1H,3H)-pyrimidinedione]: the Ki in assay [1] was 39.8 nM; in assay [2], 0.794 nM; in assay [3] it was 0.631 nM.

The values above are taken from US6046329A, “Uracil derivatives” (Byk Gulden Lomberg Chemische Fabrik GmbH, priority 1994, dated 2000).
